Paper PMC11768549, “Optimization of Toxicity, Biodegradability, and Skin Irritation in Formulations Containing Mixtures of Anionic and Nonionic Surfactants Combined with Silica Nanoparticles” (Toxics, 2025)

What was measured:
[1] = design: method as in doi:10.1016/j.molliq.2023.122021; settings: cited from earlier work; for CMC (±SD): critical micelle concentration; for HLB: hydrophilic–lipophilic balance
[2] = test system: zein; test: Irritation potential using the modified zein method (zein number); design: species or system corn; settings: room temperature; for ZN 0.5%: each component 0.5% wt.; for ZN 1%: each component 1% wt.
Protocol: The irritant potential of surfactants, their mixtures, and the addition of silica nanoparticles was assessed using a modified zein method. This method is used to assess the potential irritation of chemicals or cosmetics on the skin. It is based on the interaction of a substance with proteins, particularly with the protein zein, which is a protein derived from corn. The modified zein method is recognized as an in vitro alternative to predict dermal irritation without the need to perform tests on animals. This method involves three stages to determine the amount of protein (zein) solubilized in a surfactant-containing solution: (1) zein denaturation, (2) oxidation and mineralization of organic matter, and (3) nitrate content measurement. All experiments were conducted at room temperature and performed in triplicate. For these tests, the final concentration of each component, whether pure or in a mixture, was set at 0.5% and 1% wt. These concentrations reflect typical dosages found in cosmetic, detergent, and personal hygiene products that come into direct contact with the skin. The zein number (ZN), expressed as mg of nitrogen (N) released per 100 g of surfactant solution, was calculated using the following formula: ZN = c/10(2) where c is the nitrogen concentration measured spectrophotometrically in ppm (mg·1000 mL^−1). Given that the density of the testing solution is 1 g·mL^−1, c is ultimately expressed as mg·1000 g^−1. Two control cases were used for validation: a negative control with deionized water and a positive control with 1% wt. sodium lauryl sulphate (SLS), a well-known surfactant with high irritant potential. The zein number (ZN) (Section 2.3) provides an indication of surfactant-induced potential skin irritation. According to the scale established by, surfactants can be classified as non-irritant, moderately irritant, irritant, or strongly irritant. The final concentration of each component, whether individual or in a mixture, was set at 0.5% and 1% wt.

[3] = test system: Lepidium sativum; test: Germination test on Lepidium sativum seeds (ISO 18763:2016), root and stem elongation; format: in vivo; settings: 72 h, 25 °C, dark, mixtures 1:1; for EC50, L. sativum (Root): 50% root growth inhibition; for EC50, L. sativum (Stem): 50% stem growth inhibition
Protocol: The germination test on L. sativum (cress) seeds is a static test of acute toxicity. This test allows for evaluating the phytotoxic effects produced in the seed germination process and the development of seedlings during the first days of growth (72 h). The garden cress test with L. sativum was carried out according to ISO-18763:2016 [28]. The inhibition in the elongation of the root and stem was determined.
Briefly, 25 L. sativum seeds were placed in a well-distributed manner in Petri dishes (100 mm Ø) containing filter paper saturated with 5 mL of the test solution. Distilled water was used as a control, and zinc (II) was used as a toxic reference compound. Each Petri dish was covered and sealed to prevent moisture loss. For 72 h, at 25 °C, and in the absence of light, the different samples were incubated in triplicate. Once the incubation was completed, the length of the root and stem of each germinated seed was measured with the help of graph paper. The inhibition of the root and stem growth by the test solutions was assessed in comparison with the control.
(§1) The toxicity of individual anionic and nonionic surfactants on V. fischeri and L. sativum was evaluated, and their EC50 results are presented in Table 2. For V. fischeri, toxicity values are expressed as EC50 values, determined using a logarithmic plot of sample concentration versus the percentage reduction in light intensity after a 30-min exposure period. This indicates the concentration at which there is a 50% reduction in bioluminescence. Similarly, for L. sativum, toxicity values are also expressed as EC50 values, which represent the concentration at which 50% growth inhibition is observed. This was measured by assessing the root and stem elongation after a 72-hour exposure period. The specific growth parameters, such as root length reduction, were used to determine the EC50 values.
(§2) The model of toxic units (MTU) was applied to quantify the interactions between toxicants in binary surfactant mixtures: FAE-R12–14E11 with EC-R12–14E3, FAE-R12–14E11 with EC-R12–14E10, and FAE-R12–14E11 with EC-R8E5. This approach helps predict whether the principles of concentration or response addition apply. The toxic unit for each component in the mixture (TUi) was calculated as the ratio between the concentration of the toxicant in the mixture [i] and its half-maximal effective concentration (EC50i) (Equation (7)). The total toxic unit of the mixture (TUmix) is the sum of the TUi values of the individual components […].(7) TUi=i/EC50i (8) TUmix=TUA+TUB=A/EC50A+B/EC50B
(§3) If the toxicants act independently (response addition), the predicted toxic unit (TUr) is calculated using Equations (9) and (10). If TUr ≈ TUmix, response addition can be expected.(9) If TUA>TUB TUr=1+TUB/TUA (10) If TUA<TUB TUr=1+TUA/TUB

[4] = Static biodegradation test (OECD 301E), DOC removal; settings: initial 25 mg·L^−1; for B (surfactant biodegradability): percentage biodegraded after 50 h of assay; for t1/2 (half-life of biodegradation): time for 50% decrease of substrate, graphical
Protocol: The static biodegradation tests were conducted according to the OECD 301E guidelines, which focus on the removal of organic compounds measured as dissolved organic carbon (DOC). Solutions of the surfactant and surfactant–co-surfactant mixtures, serving as the sole carbon source for microorganisms, were tested in a mineral medium inoculated and incubated under aerobic conditions in the dark for 28 days. The initial concentration of the test substance for surfactant and surfactant–co-surfactant mixtures was set at 25 mg·L^−1.
The surfactant solution, for which biodegradability was to be determined, was inoculated with 0.5 mL of water from the secondary treatment stage of a sewage treatment plant (STP) operating with activated sludge (plus code: 597G+W2, Granada, Spain). The biodegradation process was monitored by measuring the residual surfactant concentration over time through DOC determinations in samples, filtered through a 0.45 µm Millipore membrane, using the total organic carbon (TOC) analyser Shimadzu VCSH/CSH (Shimadzu Co., Kyoto, Japan). Reference assays were performed with an easily biodegradable surfactant (linear alkylbenzene sulfonate) to determine the activity of the microbial population present in the test medium. […] All samples were tested in duplicate. The experimental setup included two flasks for the blank, two for the reference surfactant, two for the abiotic assay, and two for each of the surfactant concentrations tested.
The biodegradation of surfactants and their binary mixtures was assessed under aerobic conditions following the OECD 301E guidelines for ready biodegradability. The process was tracked by measuring the dissolved organic carbon (DOC) in the samples over time. […] Abiotic control tests, using HgCl2 to inhibit biological activity, confirmed that surfactant concentrations remained at nearly 100% throughout the degradation period. […] Figure 1 illustrates the progression of ultimate biodegradation of the surfactants and binary mixtures over the testing period. The assays were initiated with surfactant concentrations of 25 mg·L^−1.
To compare and quantify the biodegradation test, two key parameters of the biodegradation profiles were defined and analysed: (a) Half-life (t1/2) is the time required for the substrate concentration to decrease by 50% from the start of the biodegradation process. This value is determined using graphical methods based on the biodegradation curve. (b) Surfactant biodegradability (B) is defined as the percentage of surfactant that is biodegraded after 50 h of assay. Half-time and surfactant biodegradability results are shown in Table 5, together with mineralization values obtained using Equation (11).(11) Mineralization (%)=DOCi− [DOC]f/ [DOC]i·100 where
• DOCi is the dissolved organic carbon at the beginning of the test; • DOCf is the dissolved organic carbon at the end of the test.

[5] = test system: Vibrio fischeri; test: Luminescence inhibition assay in Vibrio fischeri (ISO 11348-2:2007, LumiStox 300); format: cell-based; settings: 50% bioluminescence inhibition after 30 min exposure, pH 7.0, 2% NaCl; mixtures 1:1
Protocol: The toxicity measurement is based on the luminous intensity of marine bacteria of the strain V. fischeri NRRLB11177 after exposure to a toxic substance. Measurements were taken using the LumiStox 300 system, which includes a bioluminescence measuring instrument and an incubation unit, in accordance with the ISO 11348-2:2007 guideline. The luminescent bacteria, which were dehydrated and frozen at −18 °C, were reactivated with a suspension provided by Dr. Lange. The assay conditions were maintained at a pH of 7.0 with a NaCl concentration of 2%. Triplicate measurements were taken at incubation times of 30 min. The toxicity values were determined as EC50, representing the surfactant concentrations that inhibit 50% of the bioluminescence after 30 min of exposure. If necessary, the sample was filtered prior to the assay.
as §1, §2, §3

Substance | CMC (±SD) [1] | HLB [1] | ZN 0.5% [2] | ZN 1% [2] | EC50, L. sativum (Root) [3] | EC50, L. sativum (Stem) [3] | B (surfactant biodegradability) [4] | t1/2 (half-life of biodegradation) [4] | EC50, V. fischeri [5]
Capryleth-6 Carboxylic Acid [EC-R8E5] | 97.9 ± 6.5 [17] mg·L^−1 | 11–14 [17] | 49.15 ± 3.60 mg of nitrogen (N) released per 100 g of surfactant solution | 157.9 ± 7.40 mg of nitrogen (N) released per 100 g of surfactant solution | 53.61 ± 7.20 mg/L | 64.77 ± 6.50 mg/L | 9.40% | 118.20 h | 32.76 ± 3.60 mg/L
Laureth-4 Carboxylic Acid [EC-R12–14E3] | 33.7 ± 3.1 [17] mg·L^−1 | 5.5 [17] | 152.92 ± 7.25 mg of nitrogen (N) released per 100 g of surfactant solution | 183.5 ± 5.60 mg of nitrogen (N) released per 100 g of surfactant solution | 35.40 ± 4.80 mg/L | 93.25 ± 8.90 mg/L | 1.25% | 330.90 h | 3.58 ± 1.28 mg/L
Laureth-11 Carboxylic Acid [EC-R12–14E10] | 70.8 ± 7.2 [17] mg·L^−1 | 9.5 [17] | – | – | 32.02 ± 8.90 mg/L | 60.11 ± 6.52 mg/L | 10.30% | 130.50 h | 14.18 ± 4.32 mg/L
Laureth-11/Myreth-11 [FAE-R12–14E11] | 18.5 ± 2.3 [17] mg·L^−1 | 14.3 [17] | – | – | 338.17 ± 13.21 mg/L | 97.15 ± 7.14 mg/L | 2.40% | 185.80 h | 13.26 ± 3.26 mg/L
